Laboratory results from patent US7649092B2, “Urea derivatives as calcium channel blockers” (Neuromed Pharmaceuticals Ltd., priority 2004, dated 2010).
Like-named read-outs stand apart in the source and are kept apart here.

Columns and labels:
[1] = target: T1, rat brain N-type calcium channel subunits (α1B+α2δ+β1b cDNA subunits) (Rattus norvegicus, UniProt Q02294); test: N-type calcium channel block, whole cell patch clamp in HEK 293 cells; format: cell-based; details: holding potential −80 mV to +10 mV
T1 construct: expressed in transfected cells
T1 sequence (Q02294 whole entry): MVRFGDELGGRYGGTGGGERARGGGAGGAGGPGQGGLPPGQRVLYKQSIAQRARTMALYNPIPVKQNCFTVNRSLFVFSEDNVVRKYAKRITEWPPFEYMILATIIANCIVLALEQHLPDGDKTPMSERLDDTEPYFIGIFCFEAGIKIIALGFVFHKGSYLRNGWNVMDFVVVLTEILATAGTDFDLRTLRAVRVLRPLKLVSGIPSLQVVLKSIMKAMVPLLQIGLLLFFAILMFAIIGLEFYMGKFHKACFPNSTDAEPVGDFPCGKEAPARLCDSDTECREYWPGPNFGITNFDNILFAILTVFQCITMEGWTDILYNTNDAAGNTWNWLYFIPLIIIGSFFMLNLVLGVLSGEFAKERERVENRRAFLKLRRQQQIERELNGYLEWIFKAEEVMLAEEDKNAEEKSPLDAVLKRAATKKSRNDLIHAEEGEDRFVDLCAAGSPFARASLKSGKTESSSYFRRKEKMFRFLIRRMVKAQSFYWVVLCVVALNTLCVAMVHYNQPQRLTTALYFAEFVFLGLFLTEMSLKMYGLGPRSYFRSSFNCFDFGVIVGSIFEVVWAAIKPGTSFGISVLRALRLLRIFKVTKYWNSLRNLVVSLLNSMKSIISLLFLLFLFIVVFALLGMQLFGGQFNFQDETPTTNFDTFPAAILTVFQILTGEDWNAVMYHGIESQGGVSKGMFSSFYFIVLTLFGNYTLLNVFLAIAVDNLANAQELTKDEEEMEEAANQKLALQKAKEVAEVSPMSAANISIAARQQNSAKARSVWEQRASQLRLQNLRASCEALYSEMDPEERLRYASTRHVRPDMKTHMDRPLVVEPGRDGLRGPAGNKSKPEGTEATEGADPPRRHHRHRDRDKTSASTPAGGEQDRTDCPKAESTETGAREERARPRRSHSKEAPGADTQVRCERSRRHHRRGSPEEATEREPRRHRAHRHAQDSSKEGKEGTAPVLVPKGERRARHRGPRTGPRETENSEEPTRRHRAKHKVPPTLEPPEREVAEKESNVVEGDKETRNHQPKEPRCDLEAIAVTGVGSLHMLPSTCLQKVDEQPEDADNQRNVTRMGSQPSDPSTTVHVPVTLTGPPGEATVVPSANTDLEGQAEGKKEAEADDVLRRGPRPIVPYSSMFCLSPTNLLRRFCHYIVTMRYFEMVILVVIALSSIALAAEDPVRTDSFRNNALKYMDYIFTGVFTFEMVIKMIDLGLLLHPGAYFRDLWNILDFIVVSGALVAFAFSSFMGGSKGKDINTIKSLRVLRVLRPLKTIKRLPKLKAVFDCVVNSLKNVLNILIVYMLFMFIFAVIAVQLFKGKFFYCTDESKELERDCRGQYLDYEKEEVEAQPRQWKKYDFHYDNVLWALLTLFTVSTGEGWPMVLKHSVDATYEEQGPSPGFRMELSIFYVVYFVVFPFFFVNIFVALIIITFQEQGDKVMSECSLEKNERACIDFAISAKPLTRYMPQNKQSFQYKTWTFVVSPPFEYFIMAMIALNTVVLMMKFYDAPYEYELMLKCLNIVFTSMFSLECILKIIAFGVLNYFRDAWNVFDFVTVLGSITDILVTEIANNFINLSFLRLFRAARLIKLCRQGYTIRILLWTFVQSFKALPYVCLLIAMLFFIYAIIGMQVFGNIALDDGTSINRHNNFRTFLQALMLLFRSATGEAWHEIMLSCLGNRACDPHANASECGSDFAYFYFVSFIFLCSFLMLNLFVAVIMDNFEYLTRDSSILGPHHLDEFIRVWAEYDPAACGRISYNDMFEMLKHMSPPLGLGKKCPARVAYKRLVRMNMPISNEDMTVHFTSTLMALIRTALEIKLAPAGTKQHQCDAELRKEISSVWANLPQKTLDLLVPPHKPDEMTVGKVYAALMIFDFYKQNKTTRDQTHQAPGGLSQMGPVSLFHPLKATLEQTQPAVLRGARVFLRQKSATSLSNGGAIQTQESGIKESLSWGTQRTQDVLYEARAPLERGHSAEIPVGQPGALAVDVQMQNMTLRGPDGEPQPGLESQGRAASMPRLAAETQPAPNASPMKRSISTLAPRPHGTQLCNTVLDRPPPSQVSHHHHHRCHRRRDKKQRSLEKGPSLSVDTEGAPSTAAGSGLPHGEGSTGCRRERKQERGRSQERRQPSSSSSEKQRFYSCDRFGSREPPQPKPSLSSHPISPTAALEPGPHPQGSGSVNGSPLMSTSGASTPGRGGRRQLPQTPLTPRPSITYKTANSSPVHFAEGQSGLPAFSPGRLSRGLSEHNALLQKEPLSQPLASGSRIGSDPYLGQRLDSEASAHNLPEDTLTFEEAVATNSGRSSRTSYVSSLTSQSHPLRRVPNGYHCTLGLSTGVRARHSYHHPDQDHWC
T1 sequence (P54290 25-1091 partner): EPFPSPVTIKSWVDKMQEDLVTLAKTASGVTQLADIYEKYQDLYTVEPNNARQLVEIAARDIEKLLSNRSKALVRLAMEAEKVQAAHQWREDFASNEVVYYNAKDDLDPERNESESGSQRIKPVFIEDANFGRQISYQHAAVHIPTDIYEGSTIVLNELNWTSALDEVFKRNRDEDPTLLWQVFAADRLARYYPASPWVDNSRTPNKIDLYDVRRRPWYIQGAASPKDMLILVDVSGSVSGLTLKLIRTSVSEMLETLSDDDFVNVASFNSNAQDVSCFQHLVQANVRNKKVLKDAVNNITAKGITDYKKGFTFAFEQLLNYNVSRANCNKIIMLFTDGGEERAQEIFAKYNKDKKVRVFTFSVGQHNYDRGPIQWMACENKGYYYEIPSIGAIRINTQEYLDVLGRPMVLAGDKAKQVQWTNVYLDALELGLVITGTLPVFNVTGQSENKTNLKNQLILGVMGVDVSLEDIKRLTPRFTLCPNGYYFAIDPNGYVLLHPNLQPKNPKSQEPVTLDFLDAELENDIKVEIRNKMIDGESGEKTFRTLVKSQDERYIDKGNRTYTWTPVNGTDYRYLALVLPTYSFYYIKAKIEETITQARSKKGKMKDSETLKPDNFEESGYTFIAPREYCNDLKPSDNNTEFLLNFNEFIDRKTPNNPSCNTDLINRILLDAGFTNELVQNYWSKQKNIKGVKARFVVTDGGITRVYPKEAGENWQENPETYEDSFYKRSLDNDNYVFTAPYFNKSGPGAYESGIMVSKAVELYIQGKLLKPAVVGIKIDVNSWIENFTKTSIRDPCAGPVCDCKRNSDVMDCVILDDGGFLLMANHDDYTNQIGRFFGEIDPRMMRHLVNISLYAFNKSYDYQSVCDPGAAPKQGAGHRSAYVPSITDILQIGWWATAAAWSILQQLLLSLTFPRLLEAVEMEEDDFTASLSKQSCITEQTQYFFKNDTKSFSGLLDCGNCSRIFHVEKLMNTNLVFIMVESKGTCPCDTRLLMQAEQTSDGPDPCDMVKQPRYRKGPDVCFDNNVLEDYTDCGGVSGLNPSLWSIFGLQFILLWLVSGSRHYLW
T1 sequence (P54283 whole entry partner): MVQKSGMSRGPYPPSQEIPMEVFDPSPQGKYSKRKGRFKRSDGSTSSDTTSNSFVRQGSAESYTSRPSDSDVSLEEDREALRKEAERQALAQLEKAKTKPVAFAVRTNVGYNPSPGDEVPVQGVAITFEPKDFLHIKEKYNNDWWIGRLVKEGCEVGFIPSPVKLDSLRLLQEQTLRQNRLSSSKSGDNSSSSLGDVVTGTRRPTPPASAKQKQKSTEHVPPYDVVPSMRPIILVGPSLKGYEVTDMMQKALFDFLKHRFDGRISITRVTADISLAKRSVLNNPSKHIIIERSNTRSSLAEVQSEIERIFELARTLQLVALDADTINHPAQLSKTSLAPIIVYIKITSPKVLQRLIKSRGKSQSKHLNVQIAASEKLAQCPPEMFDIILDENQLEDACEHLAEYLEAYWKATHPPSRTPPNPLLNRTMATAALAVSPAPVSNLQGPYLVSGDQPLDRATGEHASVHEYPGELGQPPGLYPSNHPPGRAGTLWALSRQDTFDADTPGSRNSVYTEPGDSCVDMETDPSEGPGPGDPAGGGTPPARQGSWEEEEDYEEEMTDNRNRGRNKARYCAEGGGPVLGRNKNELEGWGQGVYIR
Method: N-type calcium channel blocking activity was assayed in human embryonic kidney cells, HEK 293, stably transfected with the rat brain N-type calcium channel subunits (α1B+α2δ+β1b cDNA subunits). Alternatively, N-type calcium channels (α1B+α2δ+β1b cDNA subunits), L-type channels (α1C+α2δ+β1b cDNA subunits) and P/Q-type channels (α1A+α2δ+β1b cDNA subunits) were transiently expressed in HEK 293 cells. Briefly, cells were cultured in Dulbecco's modified eagle medium (DMEM) supplemented with 10% fetal bovine serum, 200 U/ml penicillin and 0.2 mg/ml streptomycin at 37° C. with 5% CO2. At 85% confluency cells were split with 0.25% trypsin/1 mM EDTA and plated at 10% confluency on glass coverslips. At 12 hours the medium was replaced and the cells transiently transfected using a standard calcium phosphate protocol and the appropriate calcium channel cDNA's. Fresh DMEM was supplied and the cells transferred to 28° C./5% CO2. Cells were incubated for 1 to 2 days prior to whole cell recording.
Whole cell patch clamp experiments were performed using an Axopatch 200B amplifier (Axon Instruments, Burlingame, Calif.) linked to a personal computer equipped with pCLAMP software. The external and internal recording solutions contained, respectively, 5 mM BaCl2, 10 mM MgCl2, 10 mM HEPES, 40 mM TEAC1, 10 mM glucose, 87.5 mM CsCl (pH 7.2) and 108 mM CsMS, 4 mM MgCl2, 9 mM EGTA, 9 mM HEPES (pH 7.2). Currents were typically elicited from a holding potential of −80 mV to +10 mV using Clampex software (Axon Instruments). Typically, currents were first elicited with low frequency stimulation (0.067 Hz) and allowed to stabilize prior to application of the compounds. The compounds were then applied during the low frequency pulse trains for two to three minutes to assess tonic block, and subsequently the pulse frequency was increased to 0.2 Hz to assess frequency dependent block. Data were analyzed using Clampfit (Axon Instruments) and SigmaPlot 4.0 (Jandel Scientific).

[2] = target: T2, human DiG T-type channels (Homo sapiens, UniProt O43497); test: T-type calcium channel block, whole-cell patch clamp in HEK cell lines; format: cell-based
T2 construct: expressed in transfected cells
Method: Standard patch-clamp techniques were employed to identify blockers of T-type currents. Briefly, previously described HEK cell lines stably expressing human DiG T-type channels were used for all the recordings (passage #: 4-20, 37° C., 5% CO2). To obtain T-type currents, plastic dishes containing semi-confluent cells were positioned on the stage of a ZEISS AXIOVERT S100 microscope after replacing the culture medium with external solution (see below). Whole-cell patches were obtained using pipettes (borosilicate glass with filament, O.D.: 1.5 mm, I.D.: 0.86 mm, 10 cm length), fabricated on a SUTTER P-97 puller with resistance values of ˜5 MΩ (see below for internal solution).
In the non-inactivating protocol, the holding potential is set at −110 mV and with a pre-pulse at −100 mV for 1 second prior to the test pulse at −40 mV for 50 ms. […]
Test compounds were dissolved in external solution, 0.1-0.01% DMSO. After ˜10 min rest, they were applied by gravity close to the cell using a WPI microfil tubing. The “non-inactivated” pre-pulse was used to examine the resting block of a compound. The “inactivated” protocol was employed to study voltage-dependent block. However, the initial data shown below were mainly obtained using the non-inactivated protocol only. IC50 values are shown for various compounds of the invention in Table 5.

[3] = test system: rat formalin model; test: Formalin-induced pain model (paw flinches); format: in vivo; details: 30 mg/kg IP, 10 min before formalin, ±SEM, saline control=100%
Method: The effects of intrathecally delivered compounds of the invention on the rat formalin model were measured. The compounds were reconstituted to stock solutions of approximately 10 mg/ml in propylene glycol. Eight Holtzman male rats of 275-375 g size were randomly selected per test article.
The following study groups were used, with test article, vehicle control (propylene glycol) and saline delivered intraperitoneally (IP):
Prior to initiation of drug delivery baseline behavioral and testing data were taken.
On the morning of testing, a small metal band (0.5 g) was loosely placed around the right hind paw. The rat was placed in a cylindrical Plexiglas chamber for adaptation a minimum of 30 minutes. Test Article or Vehicle Control Article was administered 10 minutes prior to formalin injection (50 μl of 5% formalin) into the dorsal surface of the right hind paw of the rat. The animal was then placed into the chamber of the automated formalin apparatus where movement of the formalin injected paw was monitored and the number of paw flinches tallied by minute over the next 60 minutes (Malmberg, A. B., et al., Anesthesiology (1993) 79:270-281).
Results are presented as Maximum Possible Effect ±SEM, where saline control=100%.

[4] = test system: SNL rats, thermal hyperalgesia / anti nociception; test: Spinal nerve ligation (SNL) model of neuropathic pain, paw-withdrawal latency to thermal stimulus (Hargreaves); format: in vivo; details: rat SNL, 30 mg/kg orally in propylene glycol
Text: (§1) Spinal nerve ligation (SNL) injury was induced using the procedure of Kim and Chung, (Kim, S. H., et al., Pain (1992) 50:355-363) in male Sprague-Dawley rats (Harlan; Indianapolis, Ind.) weighing 200 to 300 grams. Anesthesia was induced with 2% halothane in O2 at 2 L/min and maintained with 0.5% halothane in O2. After surgical preparation of the rats and exposure of the dorsal vertebral column from L4 to S2, the L5 and L6 spinal nerves were tightly ligated distal to the dorsal root ganglion using 4-0 silk suture. The incision was closed, and the animals were allowed to recover for 5 days. […] Sham control rats underwent the same operation and handling as the experimental animals, but without SNL.
The method of Hargreaves and colleagues (Hargreaves, K., et al., Pain (1988) 32:77-88) was employed to assess paw-withdrawal latency to a thermal nociceptive stimulus. Rats were allowed to acclimate within a Plexiglas enclosure on a clear glass plate maintained at 30° C. A radiant heat source (i.e., high intensity projector lamp) was activated with a timer and focused onto the plantar surface of the affected paw of nerve-injured or carrageenan-injected rats. Paw-withdrawal latency was determined by a photocell that halted both lamp and timer when the paw was withdrawn. The latency to withdrawal of the paw from the radiant heat source was determined prior to carrageenan or […], 3 hours after carrageenan or 7 days after L5/L6 SNL but before drug and after drug administration. A maximal cut-off of 40 seconds was employed to prevent tissue damage. Paw withdrawal latencies were thus determined to the nearest 0.1 second. Reversal of thermal hyperalgesia was indicated by a return of the paw withdrawal latencies to the pre-treatment baseline latencies (i.e., 21 seconds). Anti nociception was indicated by a significant (p<0.05) increase in paw withdrawal latency above this baseline. Data were converted to % anti hyperalgesia or % anti nociception by the formula: (100×(test latency−baseline latency)/(cut-off−baseline latency) where cut-off was 21 seconds for determining anti hyperalgesia and 40 seconds for determining anti nociception.
(§2) Compound 1 was administered orally in propylene glycol solution at a dose of 30 mg/kg. The percent activity was calculated for block of tactile allodynia, thermal hyperalgesia and analgesia.

[5] = test system: SNL rats, tactile allodynia; test: Spinal nerve ligation (SNL) model of neuropathic pain, tactile allodynia (von Frey filaments); format: in vivo; details: rat SNL, 30 mg/kg orally in propylene glycol
Text: as §1
The assessment of tactile allodynia consisted of measuring the withdrawal threshold of the paw ipsilateral to the site of nerve injury in response to probing with a series of calibrated von Frey filaments. Each filament was applied perpendicularly to the plantar surface of the ligated paw of rats kept in suspended wire-mesh cages. Measurements were taken before and after administration of drug or vehicle. Withdrawal threshold was determined by sequentially increasing and decreasing the stimulus strength (“up and down” method), analyzed using a Dixon non-parametric test (Chaplan, S. R., et al., J Pharmacol Exp Ther (1994) 269:1117-1123), and expressed as the mean withdrawal threshold.
as §2

[6] = test system: T-type over L-type channels; details: literature (Heady et al. 2001); cited from earlier work

`O=C(NC(c1ccccc1)c1ccccc1)N1CCN(C(c2ccccc2)c2ccccc2)CC1` [Compound 1, 4-Benzhydryl-piperazine-1-carboxylic acid benzhydryl-amide] showed an IC50 ([1]; low frequency stimulation 0.067 Hz (tonic block), read-out: IC50 @ 0.067 Hz) of 200 nM, an IC50 ([1]; pulse frequency 0.2 Hz (frequency dependent block), read-out: IC50 @ 0.2 Hz) of 150 nM and an IC50 ([2]; inactivation protocol, @ −80 mV, read-out: IC50 @ −80 mV) of 231 nM. For the same compound, the IC50 ([2]; non-inactivating protocol, pre-pulse −100 mV, test pulse −40 mV, read-out: IC50 @ −100 mV) was 583 nM, the “Phase I (% MPE)” value [3] was 58 ± 15 % MPE and the “Phase II Total (% MPE)” value [3] was 75 ± 12 % MPE. For the same compound, the “Phase IIA (% MPE)” value [3] was 65 ± 12 % MPE, the “Phase IIB (% MPE)” value [3] was 99 ± 15 % MPE and the “Analgesia (% Activity)” value ([4]; 30 min) was 82.47 ± 10.11 % Activity. For the same compound, the “Thermal Hyperalgesia (% Activity)” value ([4]; 30 min) was 46.98 ± 15.09 % Activity, the “Analgesia (% Activity)” value ([4]; 60 min) was 88.95 ± 8.30 % Activity and the “Thermal Hyperalgesia (% Activity)” value ([4]; 60 min) was 97.86 ± 2.14 % Activity. The “Analgesia (% Activity)” value ([4]; 90 min) was 9.02 ± 5.66 % Activity, the “Thermal Hyperalgesia (% Activity)” value ([4]; 90 min) was 49.07 ± 10.17 % Activity and the “Analgesia (% Activity)” value ([4]; 120 min) was 0.00 ± 0.00 % Activity. The “Thermal Hyperalgesia (% Activity)” value ([4]; 120 min) was 33.36 ± 10.62 % Activity, the “Tactile Allodynia (% Activity)” value ([5]; 30 min) was 35.77 ± 10.38 % Activity and the “Tactile Allodynia (% Activity)” value ([5]; 60 min) was 80.89 ± 13.30 % Activity. The “Tactile Allodynia (% Activity)” value ([5]; 90 min) was 35.49 ± 9.01 % Activity, the “Tactile Allodynia (% Activity)” value ([5]; 120 min) was 19.61 ± 6.78 % Activity and the “Tactile Allodynia (% Activity)” value ([5]; 150 min) was 1.98 ± 1.42 % Activity.
For `COCC(=O)O[C@]1(CCN(C)CCCc2nc3ccccc3[nH]2)CCc2cc(F)ccc2[C@@H]1C(C)C` [Mibefradil], the “selective for T-type over L-type channels” value [6] is listed as 10-30 fold.
